# Laboratory results as given in PMC4230943, “Mimicking Hypoxia to Treat Anemia: HIF-Stabilizer BAY 85-3934 (Molidustat) Stimulates Erythropoietin Production without Hypertensive Effects” (PLoS ONE, 2014).
# Experiments:
# male Wistar rats [1] = assay: Comparison of oral BAY 85-3934 with rhEPO on erythropoiesis; assay type: in vivo, rat
# Method: Male Wistar rats (240–340 g in body weight) were housed with five animals per cage for at least 1 week before experimentation. Blood samples from rats were collected under anesthesia (2% isoflurane in air) by puncturing the retro-orbital vein plexus with a glass capillary. In a repeat-dose, 26-day experiment, animals were administered vehicle or BAY 85-3934 at doses of 0.5 mg/kg, 1.25 mg/kg, 2.5 mg/kg, and 5 mg/kg. PCV was determined at baseline and at weekly intervals after centrifugation in a hematocrit capillary tube (Brand) for 10 min at full speed in a Haemofuge centrifuge (Heraeus). The number of reticulocytes in 5 µl blood was counted after staining with thiazol orange (Becton Dickinson) according to the manufacturer’s instructions by FACS analysis on a BD FACSCalibur system (Becton Dickinson). The efficacy of BAY 85-3934 (2.5 mg/kg, once-daily, oral) was also compared with that of rhEPO (25 IU/kg, 50 IU/kg, and 100 IU/kg, twice-weekly, s.c. injection). […] The efficacy of oral treatment with BAY 85-3934 was compared with that of standard rhEPO treatment in male Wistar rats.
# [2] = tested on: A549 cells stably transfected with the HIF-RE2-luc HIF reporter construct; assay: Luciferase reporter assay in A549 HIF-RE2 reporter cells; assay type: cell-based, human
# Method: A549 and HeLa carcinoma cell lines (American Type Culture Collection) were cultured in DMEM/F-12 (Gibco), and Hep3B cells in RPMI medium, both supplemented with antibiotics, L-glutamine and 10% fetal calf serum. A549 cells stably transfected with the HIF-RE2-luc HIF reporter construct (constructed in pGL3, Promega GmbH) were seeded on 384-well plates (Greiner) at a density of 2500 cells/well in a volume of 25 µl complete cell culture medium, and re-incubated for 16–24 h before the test. Test compounds were added at appropriate dilutions in a volume of 10 µl, and cells were re-incubated for 6 h before measurement. Luciferase activity was determined in a luminometer after addition of cell lysis/luciferase buffer. Cell line identities were verified by STR DNA typing (DSMZ GmbH).
# As in the enzymatic assay, and in contrast to experiments with iron-chelating agents (data not shown), luciferase activity was not altered by a high concentration of Fe^2+ (50 µM) in the culture medium (Fig. 1G). The high IC50 value observed corresponds well to the low sensitivity of A549 cells shown by western blot analysis.
# male Wistar rats [3] = assay: Subtotal nephrectomy (remnant kidney) model; assay type: in vivo, rat
# Method: In the chronic disease models of subtotal nephrectomy and inflammation, the sodium salt of BAY 85-3934 was used. For administration in drinking water, BAY 85-3934 sodium and enalapril were prepared as 100 mM sodium bicarbonate saline solutions (adjusted to pH 7) at final concentrations of 80 ppm and 30 ppm, respectively. Sham and vehicle control animals received saline only. Unless otherwise stated, chemicals and reagents were purchased from Sigma-Aldrich.
# Subtotal nephrectomy was conducted in adult male Wistar rats. Body weight, blood pressure, hematocrit, and blood cell counts were determined at baseline and thereafter at weekly intervals. At baseline, rats were randomly distributed into two groups: those that underwent subtotal nephrectomy and those that underwent a sham procedure without reduction of renal mass. Surgery was performed in deeply anesthetized (2% isoflurane in air) animals. Kidneys were accessed via a dorsolateral incision of the body wall of about 2 cm in length. The right kidney was removed after ligature of the renal peduncle, and subsequently the upper and lower pole of the left kidney were removed, followed by careful hemostasis. Approximately one third of the initial kidney mass remained (removed tissue was weighed to check this was achieved). In the sham-treated animals, both kidneys were exposed before closure of the wound. Three weeks after surgery, animals were allocated to each group in equal proportions with respect to systolic blood pressure and hematocrit values. For 5 weeks, animals were treated twice weekly with rhEPO (100 IU/kg), or once daily with […] (2.5 mg/kg or 5.0 mg/kg) or vehicle. In experiments using enalapril or a combination of BAY 85-3934 sodium and enalapril, study drugs were administered with drinking water. BAY 85-3934 sodium and enalapril were administered in drinking water at concentrations of 80 ppm and 30 ppm, respectively. This was equivalent to approximately 2 mg/kg/day for enalapril and 5 mg/kg/day for BAY 85-3934. Systolic blood pressure and heart rate were determined using the tail-cuff method (a semi-automatic, non-invasive blood pressure monitor; TSE Systems), with three repeated measurements per animal.
# EPO was measured in plasma samples taken from rodents using a commercial ELISA kit (R&D Systems), according to the manufacturer’s instructions. Relative plasma EPO levels were given in picograms per milliliter. In cynomolgus monkeys, EPO was measured using a combination anti-human EPO ELISAs (R&D Systems and Roche Diagnostics), with human EPO as a standard. Values were given as units per liter. For determination of plasma prorenin from rats, a commercial ELISA (Oxford Biomedical Research) was used according to the manufacturer’s instructions. Hemoglobin in rodent blood samples was determined on a Cell-Dyn 3700 apparatus (Abbott Diagnostics). BAY 85-3934 plasma concentrations were determined after protein precipitation with acetonitrile/ammonium acetate using an internal standard, followed by separation using HPLC/mass spectrometry.
# As well as anemia and inflammation, CKD is often accompanied by hypertension, upon which treatment with rhEPO may have an unfavorable impact. The effects of BAY 85-3934 were compared with rhEPO in the remnant kidney (subtotal nephrectomy) model in rats.
# male Wistar rats [4] = assay: 26-day repeat-dose experiment, packed cell volume
# Method: Male Wistar rats (240–340 g in body weight) were housed with five animals per cage for at least 1 week before experimentation. Blood samples from rats were collected under anesthesia (2% isoflurane in air) by puncturing the retro-orbital vein plexus with a glass capillary. In a repeat-dose, 26-day experiment, animals were administered vehicle or BAY 85-3934 at doses of 0.5 mg/kg, 1.25 mg/kg, 2.5 mg/kg, and 5 mg/kg. PCV was determined at baseline and at weekly intervals after centrifugation in a hematocrit capillary tube (Brand) for 10 min at full speed in a Haemofuge centrifuge (Heraeus). The number of reticulocytes in 5 µl blood was counted after staining with thiazol orange (Becton Dickinson) according to the manufacturer’s instructions by FACS analysis on a BD FACSCalibur system (Becton Dickinson). The efficacy of BAY 85-3934 (2.5 mg/kg, once-daily, oral) was also compared with that of rhEPO (25 IU/kg, 50 IU/kg, and 100 IU/kg, twice-weekly, s.c. injection). The time-course of induction of EPO mRNA expression and plasma EPO was determined at baseline and 0.5 h, 1 h, 2 h, 4 h, 6 h, and 8 h after oral administration of a single dose of BAY 85-3934 (5 mg/kg).
smiles,measurement,setting,value
"O=c1c(-n2ccnn2)c[nH]n1-c1cc(N2CCOCC2)ncn1 [BAY 85-3934, 2-[6-(morpholin-4-yl)pyrimidin-4-yl]-4-(1H-1,2,3-triazol-1-yl)-1,2-dihydro-3H-pyrazol-3-one]",equivalence of dose for gains in hematocrit and hemoglobin,male Wistar rats [1]; BAY 85-3934 2.5 mg/kg once daily,equivalent to a twice-weekly dose of rhEPO (100 IU/kg)
same,hematocrit compared with the control group,"male Wistar rats [1]; BAY 85-3934 2.5 mg/kg once daily oral, rhEPO 25, 50, 100 IU/kg twice weekly s.c., p<0.001 at day 30",significant increase
same,luciferase activity at high Fe2+ in the culture medium,[2]; Fe2+ 50 µM,not altered
same,EC50,"[2]; Homo sapiens, A549, 6 h incubation, n = 4, read-out: mean (± SD) EC50 of luciferase reporter induction",8.4 ± 0.7 µM
same,mean systolic blood pressure,male Wistar rats [3]; 2.5 mg/kg group,almost normalized values
same,systolic blood pressure versus control and rhEPO-treated animals,male Wistar rats [3]; 5 mg/kg,significantly lower
same,mean PCV,"male Wistar rats [3]; 5 mg/kg group, 2 weeks after onset of treatment",exceeded 50%
same,systolic blood pressure compared with untreated controls,"male Wistar rats [3]; 5 weeks, tail-cuff",sustained reduction
same,mean PCV,"male Wistar rats [3]; BAY 85-3934 2.5 and 5 mg/kg once daily, rhEPO 100 IU/kg twice weekly",significantly increased
same,cardiac hypertrophy,male Wistar rats [3]; data not shown,complete prevention
same,plasma prorenin after the decrease in blood pressure,"male Wistar rats [3]; once daily oral, 5 weeks",not followed by the return of prorenin to normal levels
same,gain in mean PCV,"male Wistar rats [4]; 1.25 mg/kg once daily, by day 26",approximately 3%
same,mean PCV gain from baseline,"male Wistar rats [4]; 5 mg/kg once daily, 26 days",17%
same,tolerability,"male Wistar rats [4]; 0.5–5 mg/kg, 26 days",well tolerated
same,dose from which mean PCV is significantly elevated versus vehicle,"male Wistar rats [4]; once daily oral, 26 days",≥ 1.25 mg/kg
